Test results: patent US8552163B2, “Liver-targeting agents and their synthesis” (Johns Hopkins University, priority 2009, dated 2013)

What was measured:
ASGPR = biological target: T1, ASGPR (Mus musculus, UniProt P24721+P34927); experiment: Competitive binding assay with Eu-ASOR on murine hepatocyte (time-resolved fluorometry); conditions: for binding to ASGPR compared with that of YEE or YDD: relative to YEE or YDD, from the IC50 data of Table 1
T1 construct: host or cells: murine hepatocytes (purchased, plated in 24-well plates)
T1 sequence (P34927 1-284): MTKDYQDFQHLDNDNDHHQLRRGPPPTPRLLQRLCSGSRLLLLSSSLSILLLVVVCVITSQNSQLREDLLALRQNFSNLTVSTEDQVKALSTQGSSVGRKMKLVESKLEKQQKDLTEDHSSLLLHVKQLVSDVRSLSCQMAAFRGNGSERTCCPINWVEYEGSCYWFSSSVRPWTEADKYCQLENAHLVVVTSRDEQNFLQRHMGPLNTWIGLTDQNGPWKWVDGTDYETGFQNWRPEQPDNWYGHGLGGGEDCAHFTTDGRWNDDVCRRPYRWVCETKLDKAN
T1 sequence (P24721 1-301): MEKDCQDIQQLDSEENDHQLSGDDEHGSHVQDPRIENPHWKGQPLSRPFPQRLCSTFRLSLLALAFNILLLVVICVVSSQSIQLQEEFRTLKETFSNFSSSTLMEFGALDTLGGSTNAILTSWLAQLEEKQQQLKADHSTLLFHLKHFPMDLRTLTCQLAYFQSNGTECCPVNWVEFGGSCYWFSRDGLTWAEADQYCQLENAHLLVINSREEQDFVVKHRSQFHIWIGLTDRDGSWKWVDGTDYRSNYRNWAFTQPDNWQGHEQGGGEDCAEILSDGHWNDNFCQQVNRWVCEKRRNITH
Method: With Eu-asialo-orosomucoid (Eu-ASOR) as a reference material, the binding affinity of the multivalent glyco-ligands (DCM-Lys(ah-GalNAc)3, DCM-Lys(GahGalNAc)3, DCM-Lys(ahLac)3, AHA-Asp[DCM-Lys(ahLac)3]2) and murine hepatocyte can be determined by competitive assay to obtain IC50 (concentration of 50% inhibition), and the lower the IC50 is, the higher the binding affinity. The murine hepatocyte (Lonza Biotechnology Company, Walkersville, Md.) is plated in a 24-well plate in advance, and the reaction occurs in each well, into which (i) Eu-ASOR 10 nM (ii) hepatocyte basic medium with 5 mM calcium chloride, and (iii) five different concentrations of multivalent ligands of 1 μM-0.8 nM are added. After culturing with shaking for 1 hr in the cold, the unbound ligands are removed by washing with the hepatocyte basic medium containing calcium chloride. Time-resolved fluorometry (TRF) is performed, using an enhancement solution (15 μM β-naphthoyl trifluoroacetone, 50 μM tri-n-octyl-phosphine oxide, 0.1% triton X-100 in 0.1 M acetic acid, titrated with potassium hydrogen phthalate to pH 3.2). The enhancement solution reacts with Eu^3+ to form an Eu chelate, which can emit at 615 nm when excited at 340 nm. With the logarithm of the concentration of saccharide chain peptide as X axis, the emitted fluorescence value as Y axis, the fluorescence value without adding glycopeptide being set as 100%, the IC50 values of each ligand can be calculated accordingly.

[1] = as first reported by Lee (1983); cited from earlier work

SMILES | binding to ASGPR compared with that of YEE or YDD (ASGPR) | IC50 (ASGPR; competition with 10 nM Eu-ASOR, murine hepatocyte, 5 mM calcium chloride, 1 hr in the cold, read-out: IC50 (concentration of 50% inhibition), binding strength of saccharide chains and murine hepatocyte) [nM] | solubility [1]
NCCCCCC(=O)NC(CC(=O)NCCCCC(C(=O)NCCCCCCOC1OC(CO)C(OC2OC(CO)C(O)C(O)C2O)C(O)C1O)N(CC(=O)NCCCCCCOC1OC(CO)C(OC2OC(CO)C(O)C(O)C2O)C(O)C1O)CC(=O)NCCCCCCOC1OC(CO)C(OC2OC(CO)C(O)C(O)C2O)C(O)C1O)C(=O)NCCCCC(C(=O)NCCCCCCOC1OC(CO)C(OC2OC(CO)C(O)C(O)C2O)C(O)C1O)N(CC(=O)NCCCCCCOC1OC(CO)C(OC2OC(CO)C(O)C(O)C2O)C(O)C1O)CC(=O)NCCCCCCOC1OC(CO)C(OC2OC(CO)C(O)C(O)C2O)C(O)C1O (stereo not shown) [AHA-Asp[DCM-Lys(ahLac)3]2] | the same binding strength as that of YEE or YDD |  | 
CC(=O)N[C@H]1[C@H](OCCCCCCNC(=O)CNC(=O)CN(CC(=O)NCC(=O)NCCCCCCO[C@@H]2O[C@H](CO)[C@H](O)[C@H](O)[C@H]2NC(C)=O)[C@@H](CCCCN)C(=O)NCC(=O)NCCCCCCO[C@@H]2O[C@H](CO)[C@H](O)[C@H](O)[C@H]2NC(C)=O)O[C@H](CO)[C@H](O)[C@@H]1O [DCM-Lys(GahGalNAc)3] | 10 times | 1 | 
CC(=O)N[C@H]1[C@H](OCCCCCCNC(=O)CC[C@H](NC(=O)CC[C@H](NC(=O)[C@@H](N)Cc2ccc(O)cc2)C(=O)NCCCCCCO[C@@H]2O[C@H](CO)[C@H](O)[C@H](O)[C@H]2NC(C)=O)C(=O)NCCCCCCO[C@@H]2O[C@H](CO)[C@H](O)[C@H](O)[C@H]2NC(C)=O)O[C@H](CO)[C@H](O)[C@@H]1O [YEE(ahGalNAc)3] |  |  | poor solubility
